Our source for the IC50 values is US12643910B2, “Substituted pyrazolo[3,4-b]pyridines as ectonucleotide pyrophosphatase/phosphodiesterase 1 (ENPP1) modulators” (SANFORD BURNHAM PREBYS MEDICAL DISCOVERY INSTITUTE, priority 2019, dated 2026).

In test [1] the target is T1, human ENPP1 (Homo sapiens, UniProt P22413).
T1 construct: made in house
T1 sequence (P22413 1-925): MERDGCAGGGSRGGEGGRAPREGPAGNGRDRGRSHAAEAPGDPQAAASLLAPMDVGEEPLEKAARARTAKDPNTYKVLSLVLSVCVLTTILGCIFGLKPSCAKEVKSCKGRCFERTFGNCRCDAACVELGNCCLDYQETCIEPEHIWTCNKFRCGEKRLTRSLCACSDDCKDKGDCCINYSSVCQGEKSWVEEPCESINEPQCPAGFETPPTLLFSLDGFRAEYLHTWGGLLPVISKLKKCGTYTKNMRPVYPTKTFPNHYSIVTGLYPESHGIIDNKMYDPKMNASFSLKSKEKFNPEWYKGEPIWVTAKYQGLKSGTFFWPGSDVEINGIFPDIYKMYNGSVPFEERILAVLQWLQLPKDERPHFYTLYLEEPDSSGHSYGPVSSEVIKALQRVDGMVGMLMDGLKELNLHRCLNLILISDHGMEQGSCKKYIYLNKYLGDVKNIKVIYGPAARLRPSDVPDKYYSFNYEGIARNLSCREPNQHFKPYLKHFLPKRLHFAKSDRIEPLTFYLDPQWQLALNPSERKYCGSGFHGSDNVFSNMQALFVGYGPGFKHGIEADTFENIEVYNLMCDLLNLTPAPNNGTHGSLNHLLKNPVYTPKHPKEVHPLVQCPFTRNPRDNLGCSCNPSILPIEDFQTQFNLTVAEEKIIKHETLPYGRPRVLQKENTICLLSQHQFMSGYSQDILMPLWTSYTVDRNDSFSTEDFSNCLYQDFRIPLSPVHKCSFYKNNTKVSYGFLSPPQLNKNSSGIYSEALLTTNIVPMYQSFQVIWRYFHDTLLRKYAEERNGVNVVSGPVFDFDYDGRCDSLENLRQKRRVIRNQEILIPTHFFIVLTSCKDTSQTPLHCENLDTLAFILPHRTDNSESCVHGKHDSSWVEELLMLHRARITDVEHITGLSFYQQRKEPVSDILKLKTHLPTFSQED
Briefly: ENPP1 assay with ATP substrate (Transcreener AMP2/GMP2 TR-FRET). The test is classed as biochemical. To be noted: 1 hour at room temperature. Put shortly:
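Reaction ran 1 h at room temperature in pH 7.5 Tris with MgCl2, TCEP, Tween 20 and 1% DMSO. ATP was added as a 300 nM stock and enzyme as an 8.5 μM stock. After EDTA stop, AMP was read by TR-FRET tracer displacement. Percent inhibition used enzyme/no-enzyme controls; IC50 was fitted with a variable slope.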

For test [2], the target named is T2, ENPP3 (Homo sapiens, UniProt O14638).
T2 sequence (O14638 1-875): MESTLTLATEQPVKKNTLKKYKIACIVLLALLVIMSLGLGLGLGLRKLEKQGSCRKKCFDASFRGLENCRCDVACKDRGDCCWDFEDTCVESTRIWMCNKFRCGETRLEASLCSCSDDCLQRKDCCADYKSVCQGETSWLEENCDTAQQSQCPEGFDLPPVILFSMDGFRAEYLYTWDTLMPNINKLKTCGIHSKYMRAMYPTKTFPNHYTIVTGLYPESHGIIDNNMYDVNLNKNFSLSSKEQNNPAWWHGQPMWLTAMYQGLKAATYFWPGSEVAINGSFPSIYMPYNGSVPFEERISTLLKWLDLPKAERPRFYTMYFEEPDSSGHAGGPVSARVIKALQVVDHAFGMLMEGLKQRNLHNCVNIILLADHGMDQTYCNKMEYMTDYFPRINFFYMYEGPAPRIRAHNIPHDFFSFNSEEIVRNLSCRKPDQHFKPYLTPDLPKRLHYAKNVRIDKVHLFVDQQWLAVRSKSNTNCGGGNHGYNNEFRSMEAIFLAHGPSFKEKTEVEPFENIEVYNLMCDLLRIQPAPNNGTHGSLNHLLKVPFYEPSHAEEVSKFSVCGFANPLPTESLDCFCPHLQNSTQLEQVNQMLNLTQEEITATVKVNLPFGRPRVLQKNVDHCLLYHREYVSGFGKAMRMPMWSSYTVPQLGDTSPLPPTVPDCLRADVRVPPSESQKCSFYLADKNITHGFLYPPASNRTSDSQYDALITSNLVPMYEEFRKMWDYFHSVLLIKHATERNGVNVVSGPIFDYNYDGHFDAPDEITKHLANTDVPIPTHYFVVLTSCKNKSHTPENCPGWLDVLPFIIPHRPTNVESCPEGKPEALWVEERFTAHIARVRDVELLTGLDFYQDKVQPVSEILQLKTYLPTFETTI
Briefly: ENPP3 Km ATP assay. The test is classed as biochemical. To be noted: ATP at Km.

Broadly, the IC50 is the concentration needed to halve the response being measured. For the compound `Cc1csc2c(N3CCC(NC(=O)CCc4cccc(F)c4)CC3)ncnc12` [Example 3.39, 3-(3-Fluorophenyl)-N-(1-(7-methylthieno[3,2-d]pyrimidin-4-yl)piperidin-4-yl)propanamide], the half-maximal inhibitory concentration (IC50) in test [1] and in test [2] was > 20 µM throughout.

Regarding `NS(=O)(=O)c1ccc(CNc2nc(NCc3ccccc3)nc3scc(-c4ccccc4)c23)cc1` [Example 1.41, 4-(((2-(Benzylamino)-5-phenylthieno[2,3-d]pyrimidin-4-yl)amino)methyl)-benzenesulfonamide], the figures for the IC50 in test [1] and in test [2] were < 0.1 µM and 0.1 to 1 µM, respectively.

`Cc1nc(NCc2ccc(S(N)(=O)=O)cc2)c2c(Br)nn(C)c2n1` [Example 2.89, 4-((3-Bromo-1,6-dimethyl-1H-pyrazolo[3,4-d]pyrimidin-4-yl)aminomethyl)-benzenesulfonamide]: the IC50 in test [1] and in test [2] was < 0.1 µM throughout.

In the case of `CNc1cc(NCc2ccc(S(N)(=O)=O)cc2)c2cnn(C)c2n1` [Example 2.76, 4-(((1-Methyl-6-(methylamino)-1H-pyrazolo[3,4-b]pyridin-4-yl)amino)methyl)-benzenesulfonamide], the results for the IC50 in test [1] and in test [2] were 1 to 20 µM and 0.1 to 1 µM, respectively.

On to `Cn1ncc2c(NCc3ccc(S(N)(=O)=O)cc3)nc(C(F)(F)F)nc21` [Example 2.133, 4-((1-Methyl-6-trifluoromethyl-1H-pyrazolo[3,4-d]pyrimidin-4-yl)aminomethyl)-benzenesulfonamide], for which the IC50 in test [1] and in test [2] was 1 to 20 µM throughout.

For `COc1ccc(CNc2nc(-c3ccccn3)nc3scc(-c4ccccc4)c23)cc1` [Example 1.3, N-(4-Methoxybenzyl)-5-phenyl-2-(pyridin-2-yl)thieno[2,3-d]pyrimidin-4-amine], the IC50 in test [1] and in test [2] was > 20 µM each time.

Turning to `Cn1ncc2c(NCc3ccc(S(N)(=O)=O)c(Cl)c3)ncnc21` [Example 2.4, 2-Chloro-4-(((1-methyl-1H-pyrazolo[3,4-d]pyrimidin-4-yl)amino)methyl)-benzenesulfonamide], the figures for the IC50 in test [1] and in test [2] were 0.1 to 1 µM and 1 to 20 µM, respectively.

In the case of `Cc1ccccc1CCCNC1CCN(c2ncnc3c(C)csc23)CC1` [Example 3.16, 1-(7-Methylthieno[3,2-d]pyrimidin-4-yl)-N-(3-(o-tolyl)propyl)piperidin-4-amine], the figures for the IC50 in test [1] and in test [2] were 0.1 to 1 µM and > 20 µM, respectively.

For the compound `Cn1nc(Br)c2c(NCc3ccc(S(N)(=O)=O)cc3)nc(Cl)nc21` [Example 2.87, 4-((3-Bromo-6-chloro-1-methyl-1H-pyrazolo[3,4-d]pyrimidin-4-yl)aminomethyl)-benzenesulfonamide], the IC50 in test [1] and in test [2] was < 0.1 µM in each case.

For `NS(=O)(=O)c1ccc(CNc2nc(Cl)nc3c2cnn3CC(F)(F)F)cc1` [Example 2.86, 4-((6-Chloro-1-(2,2,2-trifluoroethyl)-1H-pyrazolo[3,4-d]pyrimidin-4-yl)aminomethyl)-benzenesulfonamide], the IC50 in test [1] and in test [2] was 1 to 20 µM each time.

Take `NS(=O)(=O)c1ccc(CNc2nc(-c3ccccn3)nc3scc(-c4ccncc4)c23)cc1` [Example 1.20, 4-(((2-(Pyridin-2-yl)-5-(pyridin-4-yl)thieno[2,3-d]pyrimidin-4-yl)amino)methyl)-benzenesulfonamide]: the IC50 in test [1] was 1 to 20 µM; in test [2] it was > 20 µM.

Turning to `Cc1csc2c(N3CCC(NCCCc4cccc(C(F)(F)F)c4)CC3)ncnc12` [Example 3.12, 1-(7-Methylthieno[3,2-d]pyrimidin-4-yl)-N-(3-(3-(trifluoromethyl)phenyl)propyl)piperidin-4-amine], the IC50 was 0.1 to 1 µM in test [1] and > 20 µM in test [2].

For `COCCNc1nc(NCc2ccc(S(N)(=O)=O)cc2)c2c(-c3ccccc3)csc2n1` [Example 1.54, 4-((2-(2-Methoxyethyl)amino-5-phenylthieno[2,3-d]pyrimidin-4-yl)aminomethyl)-benzenesulfonamide], the IC50 in test [1] and in test [2] was < 0.1 µM throughout.

As to `CN(Cc1ccccc1)c1nc(NCc2ccc(S(N)(=O)=O)cc2)c2cnn(C)c2n1` [Example 2.32, 4-(((6-(Benzyl(methyl)amino)-1-methyl-1H-pyrazolo[3,4-d]pyrimidin-4-yl)amino)methyl)-benzenesulfonamide], the IC50 was > 20 µM in test [1] and 0.1 to 1 µM in test [2].

Take `COCCCNc1nc(NCc2ccc(S(N)(=O)=O)cc2)c2c(-c3ccccc3)csc2n1` [Example 1.56, 4-((2-(3-Methoxypropyl)amino-5-phenylthieno[2,3-d]pyrimidin-4-yl)aminomethyl)-benzenesulfonamide]: the IC50 in test [1] and in test [2] was < 0.1 µM each time.

Turning to `Cc1nc(NCc2ccc(S(N)(=O)=O)cc2)c2cnn(C)c2n1` [Example 2.26, 4-(((1,6-Dimethyl-1H-pyrazolo[3,4-d]pyrimidin-4-yl)amino)methyl)benzenesulfonamide], the half-inhibitory concentration (IC50) in test [1] is < 0.1 µM; in test [2], 0.1 to 1 µM.

In the case of `NS(=O)(=O)c1ccc(CNc2ncnc3c2cnn3-c2ccccc2)cc1` [Example 2.38, 4-(((1-Phenyl-1H-pyrazolo[3,4-d]pyrimidin-4-yl)amino)methyl)benzenesulfonamide], the IC50 in test [1] and in test [2] was 1 to 20 µM each time.

For the compound `Cc1csc2c(N3CCC(NC(=O)CCc4ccc(F)cc4)CC3)ncnc12` [Example 3.20, 3-(4-Fluorophenyl)-N-(1-(7-methylthieno[3,2-d]pyrimidin-4-yl)piperidin-4-yl)propanamide], the IC50 in test [1] and in test [2] was > 20 µM each time.

As to `Cn1ncc2c(N3CCC(NCCCc4ccncc4)CC3)nc(-c3ccccn3)nc21` [Example 2.20, 1-(1-Methyl-6-(pyridin-2-yl)-1H-pyrazolo[3,4-d]pyrimidin-4-yl)-N-(3-(pyridin-4-yl)propyl)piperidin-4-amine], the IC50 in test [1] and in test [2] was > 20 µM throughout.

For the compound `CCNc1nc(NCc2ccc(S(N)(=O)=O)cc2)c2cnn(C)c2n1` [Example 2.49, 4-(((6-(Ethylamino)-1-methyl-1H-pyrazolo[3,4-d]pyrimidin-4-yl)amino)methyl)-benzenesulfonamide], the IC50 in test [1] and in test [2] was 0.1 to 1 µM each time.

Turning to `O=C(CCc1ccc(F)cc1)NC1CCN(c2ncnc3c(I)csc23)CC1` [Example 3.48, 3-(4-Fluorophenyl)-N-(1-(7-iodothieno[3,2-d]pyrimidin-4-yl)piperidin-4-yl)propanamide], the figures for the IC50 in test [1] and in test [2] were 0.1 to 1 µM and > 20 µM, respectively.

For the compound `NS(=O)(=O)c1ccc(COc2ncnc3scc(-c4ccccc4)c23)cc1` [Example 1.70, 4-((5-Phenylthieno[2,3-d]pyrimidin-4-yl)oxymethyl)benzenesulfonamide], the IC50 in test [1] lay within 0.1 to 1 µM; in test [2], 1 to 20 µM.

As for `Clc1ccc(CNc2nc(-c3ccccn3)nc3scc(-c4ccccc4)c23)cc1` [Example 1.10, (4-Chloro-benzyl)-(5-phenyl-2-pyridin-2-yl-thieno[2,3-d]pyrimidin-4-yl)-amine], the IC50 in test [1] and in test [2] was > 20 µM throughout.
